Entries after “also recorded” stand apart in the source; their conditions may differ. Starred links: 1 amine or outer side, 2 acyl side, 3 side chain; linkers in the order of their positions; H or OH if unused. Positions of bridges follow the written chain, without caps; N, C: chain ends. Non-standard residues stand in square brackets, D forms with d. Residues, ends and D or L forms follow the SMILES beside them. Trp(7-aza) = N[C@@H](Cc1c[nH]c2ncccc12)C(=O)O; Tiq1c(1S) = O=C(O)[C@H]1NCCc2ccccc21; mXylylene = c1cc(C[*:1])cc(C[*:2])c1; pXylylene = c1cc(C[*:2])ccc1C[*:1]; Phg = N[C@H](C(=O)O)c1ccccc1; Tle = CC(C)(C)[C@H](N)C(=O)O; NMeS = CN[C@@H](CO)C(=O)O; hCys = N[C@@H](CCS)C(=O)O; Nva = CCC[C@H](N)C(=O)O
biological target: T1, C5 (Homo sapiens, UniProt P01031); assay: Competitive fluorescence polarization (FP) binding assay with probe R3076; set-up: purchased Complement Technology, Tyler, Tex; settings: not given
T1 sequence (P01031 678-1676 limits assumed): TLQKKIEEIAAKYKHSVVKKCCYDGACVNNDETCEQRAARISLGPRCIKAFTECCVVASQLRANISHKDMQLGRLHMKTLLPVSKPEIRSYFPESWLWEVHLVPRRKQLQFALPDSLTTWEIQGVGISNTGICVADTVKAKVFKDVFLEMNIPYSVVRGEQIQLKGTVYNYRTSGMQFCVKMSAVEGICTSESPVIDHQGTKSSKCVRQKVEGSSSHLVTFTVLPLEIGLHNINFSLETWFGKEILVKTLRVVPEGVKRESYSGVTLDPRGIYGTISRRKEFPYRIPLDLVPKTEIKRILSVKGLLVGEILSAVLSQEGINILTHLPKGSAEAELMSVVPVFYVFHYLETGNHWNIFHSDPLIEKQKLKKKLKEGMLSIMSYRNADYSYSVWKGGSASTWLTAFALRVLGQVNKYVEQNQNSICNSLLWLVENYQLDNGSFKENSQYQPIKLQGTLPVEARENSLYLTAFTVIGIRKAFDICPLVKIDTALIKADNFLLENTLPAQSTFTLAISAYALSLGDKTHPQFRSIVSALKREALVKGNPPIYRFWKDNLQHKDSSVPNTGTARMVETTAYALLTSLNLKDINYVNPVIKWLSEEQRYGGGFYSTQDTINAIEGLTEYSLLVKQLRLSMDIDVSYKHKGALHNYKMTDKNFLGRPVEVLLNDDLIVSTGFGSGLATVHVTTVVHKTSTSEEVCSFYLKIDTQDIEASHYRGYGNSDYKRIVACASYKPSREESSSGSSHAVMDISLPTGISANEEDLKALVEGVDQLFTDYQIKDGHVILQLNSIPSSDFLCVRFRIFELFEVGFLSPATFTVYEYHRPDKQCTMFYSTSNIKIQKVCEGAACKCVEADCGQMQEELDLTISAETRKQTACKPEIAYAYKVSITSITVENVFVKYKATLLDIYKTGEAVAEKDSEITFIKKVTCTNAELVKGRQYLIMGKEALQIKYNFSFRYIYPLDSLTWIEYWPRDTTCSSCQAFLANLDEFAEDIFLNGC
T1 sequence (P01031 19-673 limits assumed): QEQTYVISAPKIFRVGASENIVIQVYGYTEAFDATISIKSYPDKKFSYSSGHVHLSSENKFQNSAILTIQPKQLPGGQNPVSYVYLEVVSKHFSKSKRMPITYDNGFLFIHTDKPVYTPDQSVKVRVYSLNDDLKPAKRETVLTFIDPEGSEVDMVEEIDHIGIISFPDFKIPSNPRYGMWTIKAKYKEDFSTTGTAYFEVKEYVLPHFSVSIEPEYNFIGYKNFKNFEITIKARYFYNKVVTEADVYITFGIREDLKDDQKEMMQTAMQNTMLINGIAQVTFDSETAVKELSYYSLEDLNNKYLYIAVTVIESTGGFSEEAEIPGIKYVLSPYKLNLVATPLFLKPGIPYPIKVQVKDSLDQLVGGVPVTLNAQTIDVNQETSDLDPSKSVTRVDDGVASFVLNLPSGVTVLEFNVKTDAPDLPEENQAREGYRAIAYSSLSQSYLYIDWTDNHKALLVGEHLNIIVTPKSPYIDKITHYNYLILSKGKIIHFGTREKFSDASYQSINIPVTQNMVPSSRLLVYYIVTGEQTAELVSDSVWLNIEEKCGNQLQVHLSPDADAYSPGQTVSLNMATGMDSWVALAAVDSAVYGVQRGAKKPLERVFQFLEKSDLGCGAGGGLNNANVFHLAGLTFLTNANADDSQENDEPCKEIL
Procedure: FP was used for screening competitive polypeptide inhibitors of the C5 protein. […] The BODIPY-TMR dye attached to the C-terminal lysine of the protein and the subsequent labeled probe was purified by HPLC.
Human C5 protein was diluted to 200 nM in assay buffer, composed of TBS (EMD Millipore, Billerica, Mass.)+0.005% Triton-X (Sigma, Saint Louis, Mo.). 10 μl of assay buffer was added to all wells of a black, non-binding, 384-well assay plate (Greiner, Monroe, N.C.) and 10 μl of diluted C5 protein stock was added to experimental and designated control wells.
Probe R3076 (SEQ ID NO: 40) was diluted 1 to 10 in DMSO (Life Technologies, Grand Island, N.Y.) and 30 μl of that stock was diluted in 3 ml of assay buffer to yield a 100 nM stock. 10 μl of this working stock was then added to each well in the assay plate. The assay plate was incubated at room temperature, protected from light, for 20 minutes to allow binding to reach equilibrium.
Test articles listed in Table 7 were subsequently diluted in DMSO then assay buffer, comprising 10 2-fold dilutions and were then added to the assay plate in triplicate, rapidly. The assay plate was then incubated in the Paradigm (Molecular Devices, Sunnyvale, Calif.) plate reader for 60 minutes at 25° C.
After incubation for 60 minutes, the plate was read using the Paradigm FP protocol (Molecular Devices, Sunnyvale, Calif.) and raw polarization values were imported into Graphpad Prism.

Row | SMILES | competition for / affinity for C5 in words
1 | CCC[C@H](NC(=O)[C@H](Cc1ccc(O)cc1)NC(=O)[C@H](CC(N)=O)NC(=O)[C@H](CCC)NC(=O)[C@H](CCC(=O)O)NC(=O)[C@@H](NC(=O)[C@H](Cc1c[nH]c2ncccc12)NC(=O)[C@@H](NC(=O)[C@H](CS)NC(=O)[C@H](Cc1ccc(O)cc1)NC(=O)[C@@H]1CCCN1C(=O)[C@H](Cc1ccc(O)cc1)NC(C)=O)c1ccccc1)C(C)(C)C)C(=O)N[C@@H](CCC(=O)O)C(N)=O [Compound R3023, Ac-Y-P-Y-C-Phg-azaTrp-Tbg-E-Nvl-N-Y-Nvl-E-NH2] (Ac-YPYC[Phg][Trp(7-aza)][Tle]E[Nva]NY[Nva]E-NH2) | no activity at the highest concentration tested; also recorded: not detected at the highest concentration tested; also recorded: no affinity
2 | CSCC[C@H](N)C(=O)N[C@H]1CSCc2cccc(c2)CSC[C@@H](C(=O)N[C@@H](CC(=O)O)C(=O)N[C@H](C(=O)N[C@@H](Cc2ccc(O)cc2)C(=O)N[C@@H](Cc2c[nH]c3ccccc23)C(=O)N[C@@H](CCC(=O)O)C(N)=O)C(C)C)NC(=O)[C@H](Cc2ccccc2)NC(=O)[C@H](CCCNC(=N)N)NC(=O)[C@H](CCC(=O)O)NC(=O)[C@H](C(C)C)NC1=O [Compound R3043, [mXylyl(2,7)]M-C-V-E-R-F-C-D-V-Y-W-E-NH2] (H-MCVERFCDVYWE-NH2; linker 2-7 via mXylylene) | weak affinity
3 | CCC[C@H](NC(C)=O)C(=O)N[C@H]1CSCc2cccc(c2)CSC[C@@H](C(=O)N[C@@H](CCC)C(=O)N2CCC[C@H]2C(N)=O)NC(=O)[C@H](Cc2c[nH]cn2)NC(=O)[C@H](CO)N(C)C(=O)[C@H](Cc2ccc(O)cc2)NC(=O)[C@H](CCC(=O)O)NC(=O)[C@H](Cc2c[nH]c3ncccc23)NC(=O)[C@H]([C@@H](C)O)NC(=O)[C@H](c2ccccc2)NC1=O [Compound R3011, [mXylyl(2,10)]Ac-Nvl-C-Phg-T-azaTrp-E-Y-(N—Me)S-H-C-Nvl-P-NH2] (Ac-[Nva]C[Phg]T[Trp(7-aza)]EY[NMeS]HC[Nva]P-NH2; linker 2-10 via mXylylene) | relatively strong affinity
4 | CCC[C@H](NC(C)=O)C(=O)N[C@@H](CS)C(=O)N[C@@H](Cc1ccc(O)cc1)C(=O)N[C@@H](CCC(=O)O)C(=O)N[C@@H](CC(N)=O)C(=O)N[C@H](C(=O)N[C@@H](Cc1ccc(O)cc1)C(=O)N[C@@H](Cc1c[nH]c2ncccc12)C(=O)N[C@@H](CCC(=O)O)C(=O)N[C@@H](Cc1ccc(O)cc1)C(=O)N1CCC[C@H]1C(=O)N[C@H](C(=O)N1CCC[C@H]1C(N)=O)c1ccccc1)C(C)(C)C [Compound R3003, Ac-Nvl-C-Y-E-N-Tbg-Y-azaTrp-E-Y-P-Phg-P-NH2] (Ac-[Nva]CYEN[Tle]Y[Trp(7-aza)]EYP[Phg]P-NH2) | most potent
5 | CCC[C@H](NC(=O)[C@@H]1CCCN1C(=O)[C@H](CCC)NC(=O)[C@@H]1CSCc2cccc(c2)CSC[C@H](NC(C)=O)C(=O)N[C@@H](c2ccccc2)C(=O)N[C@@H]([C@@H](C)O)C(=O)N[C@@H](Cc2c[nH]c3ncccc23)C(=O)N[C@@H](CCC(=O)O)C(=O)N[C@@H](Cc2ccc(O)cc2)C(=O)N(C)[C@@H](CO)C(=O)N[C@@H](Cc2c[nH]cn2)C(=O)N1)C(N)=O [Compound R3014, [mXylyl(1,9)]Ac-C-Phg-T-azaTrp-E-Y-(N—Me)S-H-C-Nvl-P-Nvl-NH2] (Ac-C[Phg]T[Trp(7-aza)]EY[NMeS]HC[Nva]P[Nva]-NH2; linker 1-9 via mXylylene) | weak affinity

biological target: T1, C5; assay: Human hemolysis assay (RBC lysis assay using complete human sera); assay type: cell-based; set-up: with complete human sera (Complement Technology, Tyler Tex.) and polypeptides; tissue Complement Technology, Tyler Tex; host or cells: complete human serum; settings: antibody-sensitized sheep erythrocytes, complete human sera
Procedure: Polypeptides listed in Table 3, as well as their optimized derivatives (see Table 4) were assessed for inhibitor activity using a red blood cell hemolysis assay. […] Human sera was rapidly thawed at 37° C. and then stored on ice until diluted into GVB++. Ten 6-fold serial dilutions of polypeptides (10 mM stock, DMSO) were performed in DMSO and then added to buffer. 50 μl of each polypeptide dilution was combined with sera and 100 μl of cells in individual wells of a 96-well tissue culture-treated clear microtitre plate (USA Scientific, Ocala, Fla.) and resuspended by pipetting. Samples were incubated at 37° C. for one hour. […] Data was fit with a log-logit formula producing a dose-response curve and IC50. As used herein, the term “IC50” refers to the half maximal inhibitory concentration, a value used to indicate the amount of the inhibitor needed to reduce a given reaction or process by half.
The human constant light chain kappa and IgG2 constant heavy chain sequences were used for the constants regions of the antibody. This antibody was expressed from human embryonic kidney cells (HEK293) and purified by Protein A affinity chromatography. […] Human sera was rapidly thawed at 37° C. and then stored on ice until diluted into GVB++. Ten 6-fold serial dilutions of each compound (10 mM stock, DMSO) were performed in DMSO and then added to buffer. 50 μl of each compound dilution was combined with sera and 100 μl of cells in individual wells of a 96-well tissue culture-treated clear microtitre plate (USA Scientific, Ocala, Fla.) and resuspended by pipetting. Samples were incubated at 37° C. for one hour. […] Data was fit with a log-logit formula producing a dose-response curve and IC50 (see FIG. 11A).

Row | SMILES | IC50
6 | CCC[C@H](NC(=O)[C@@H](NC(=O)[C@@H]1CCCN1C(=O)[C@H](Cc1ccc(O)cc1)NC(=O)[C@H](CCC(=O)O)NC(=O)[C@H](Cc1c[nH]c2ncccc12)NC(=O)[C@H](Cc1ccc(O)cc1)NC(=O)[C@@H](NC(=O)[C@H](CC(=O)O)NC(=O)[C@@H]1CSCc2cccc(c2)CSC[C@H](NC(C)=O)C(=O)N[C@@H](C(C)C)C(=O)N[C@@H](C)C(=O)N[C@@H](CCCNC(=N)N)C(=O)N[C@@H](Cc2ccccc2)C(=O)N1)C(C)(C)C)c1ccccc1)C(N)=O [Compound R3150, [mXylyl(1,6)]Ac-C-V-A-R-F-C-D-Tbg-Y-azaTrp-E-Y-P-Phg-Nvl-NH2] (Ac-CVARFCD[Tle]Y[Trp(7-aza)]EYP[Phg][Nva]-NH2; linker 1-6 via mXylylene) | 0.032 µM
7 | CC(=O)N[C@H]1CSCc2cccc(c2)CSC[C@@H](C(N)=O)NC(=O)[C@H](Cc2c[nH]cn2)NC(=O)[C@H](CO)N(C)C(=O)[C@H](Cc2ccc(O)cc2)NC(=O)[C@H](CCC(=O)O)NC(=O)[C@H](Cc2c[nH]c3ncccc23)NC(=O)[C@H]([C@@H](C)O)NC(=O)[C@H](c2ccccc2)NC1=O [Compound R3015, [mXylyl(1,9)]Ac-C-Phg-T-azaTrp-E-Y-(N—Me)S-H-C-NH2] (Ac-C[Phg]T[Trp(7-aza)]EY[NMeS]HC-NH2; linker 1-9 via mXylylene) | > 3.96 µM
8 | CCC[C@H](NC(=O)[C@@H]1CCSCc2ccc(cc2)CSCC[C@H](NC(=O)[C@H](CCC)NC(C)=O)C(=O)N[C@@H](c2ccccc2)C(=O)N[C@@H]([C@@H](C)O)C(=O)N[C@@H](Cc2c[nH]c3ncccc23)C(=O)N[C@@H](CCC(=O)O)C(=O)N[C@@H](Cc2ccc(O)cc2)C(=O)N(C)[C@@H](CO)C(=O)N[C@@H](Cc2c[nH]cn2)C(=O)N1)C(N)=O [Compound R3108, [pXylyl(2,10)]Ac-Nvl-homoC-Phg-T-azaTrp-E-Y-(N—Me)S-H-homoC-Nvl-NH2] (Ac-[Nva][hCys][Phg]T[Trp(7-aza)]EY[NMeS]H[hCys][Nva]-NH2; linker 2-10 via pXylylene) | > 75 µM
9 | CCC[C@H](NC(=O)[C@@H]1CSCc2cccc(c2)CSC[C@H](NC(=O)[C@H](CCC)NC(C)=O)C(=O)N2CCc3ccccc3[C@H]2C(=O)N[C@@H]([C@@H](C)O)C(=O)N[C@@H](Cc2c[nH]c3ncccc23)C(=O)N[C@@H](CCC(=O)O)C(=O)N[C@@H](Cc2ccc(O)cc2)C(=O)N(C)[C@@H](CO)C(=O)N[C@@H](Cc2c[nH]cn2)C(=O)N1)C(N)=O [Compound R3122, [mXylyl(2,10)]Ac-Nvl-C-Tiq-T-azaTrp-E-Y-(N—Me)S-H-C-Nvl-NH2] (Ac-[Nva]C[Tiq1c(1S)]T[Trp(7-aza)]EY[NMeS]HC[Nva]-NH2; linker 2-10 via mXylylene) | > 50 µM

same assay, conditions: relative to parent polypeptide

Row | SMILES | change in ability to inhibit red blood cell lysis in words
10 | CC(=O)N[C@H]1CSCc2cccc(c2)CSC[C@@H](C(=O)N[C@@H](CC(=O)O)C(=O)N[C@H](C(=O)N[C@@H](Cc2ccc(O)cc2)C(=O)N[C@@H](Cc2c[nH]c3ccccc23)C(=O)N[C@@H](CCC(=O)O)C(=O)N[C@@H](Cc2ccccc2)C(N)=O)C(C)C)NC(=O)[C@H](Cc2ccccc2)NC(=O)[C@H](CCCNC(=N)N)NC(=O)[C@H](CCC(=O)O)NC(=O)[C@H](C(C)C)NC1=O [Compound R3048, [mXylyl(1,6)]Ac-C-V-E-R-F-C-D-V-Y-W-E-F-NH2] (Ac-CVERFCDVYWEF-NH2; linker 1-6 via mXylylene) | increased the ability
11 | CC(=O)N[C@H]1CSCc2cccc(c2)CSC[C@@H](C(=O)N[C@@H](Cc2c[nH]c3ccccc23)C(=O)N[C@@H](CCC(=O)O)C(=O)N[C@@H](Cc2ccccc2)C(N)=O)NC(=O)[C@H](Cc2ccccc2)NC(=O)[C@H](CCCNC(=N)N)NC(=O)[C@H](CCC(=O)O)NC(=O)[C@H](C(C)C)NC1=O [Compound R3125, [mXylyl(1,6)]Ac-C-V-E-R-F-C-W-E-F-NH2] (Ac-CVERFCWEF-NH2; linker 1-6 via mXylylene) | decrease in the ability
12 | CC(=O)N[C@H]1CSCc2cccc(c2)CSC[C@@H](C(=O)N[C@H](C(=O)N[C@@H](Cc2ccc(O)cc2)C(=O)N[C@@H](Cc2c[nH]c3ccccc23)C(=O)N[C@@H](CCC(=O)O)C(=O)N[C@@H](Cc2ccccc2)C(N)=O)C(C)C)NC(=O)[C@H](Cc2ccccc2)NC(=O)[C@H](CCCNC(=N)N)NC(=O)[C@H](CCC(=O)O)NC(=O)[C@H](C(C)C)NC1=O [Compound R3124, [mXylyl(1,6)]Ac-C-V-E-R-F-C-V-Y-W-E-F-NH2] (Ac-CVERFCVYWEF-NH2; linker 1-6 via mXylylene) | decrease in the ability
